Data from article PMC12624727, “Benzodeazaoxaflavin Sirtuin Inhibitors Inhibit Schistosoma mansoni Sirt2 and Cause Phenotypic Changes and Lethality in Schistosomula and Adult Worm Stages” (ACS Infectious Diseases, 2025).

What was measured:
[1] = system: S. mansoni (Puerto Rican) worm pairs; test: Egg laying by adult worm pairs (Puerto Rican strain); format: cell-based, Schistosoma mansoni; settings: % of DMSO control
[2] = system: S. mansoni (Puerto Rican) worm pairs; test: Worm pairing of adult worm pairs (Puerto Rican strain); format: cell-based, Schistosoma mansoni; settings: % of DMSO control
[3] = system: adult S. mansoni (Puerto Rican strain) worm pairs; settings: Puerto Rican strain; for lethality of adult worm pairs: 20 μM, by 72 h
[4] = system: adult S. mansoni (Puerto Rican strain) worm pairs; test: microbe, parasite or virus in culture; settings: Schistosoma mansoni, 24 h, read-out: mortality in adult worm pairs
SmSirt2 = SmSirt2 (Schistosoma mansoni, UniProt T1VXA1); test: In vitro SmSirt2 inhibition assay, homogeneous fluorescence-based, ZMAL substrate; format: biochemical
Description: We first improved the synthetic method to obtain most of the BDFs analogues 1–12 (Figure ), and we tested them against recombinant SmSirt2 using a homogeneous, fluorescent-based in vitro assay with (Z)-(Ac)-Lys-7-amino-4-methylcoumarin (ZMAL) as the substrate.
The BDF4 compounds 1–12 were tested for their inhibitory activity against SmSirt2 using a fluorescence-based assay with ZMAL as the substrate. Their activity against hSirt2 has been previously reported. ,
For the screening of compounds 1–12, a homogeneous fluorescence-based assay previously described by some of us was used to determine SmSirt2 activity.

[5] = MTT viability assay on BJ fibroblasts; settings: human
[6] = system: adult S. mansoni (Liberian strain) worm pairs; test: Adult worm (Liberian strain) in vitro viability assay; format: cell-based, Schistosoma mansoni; settings: for adult worms' percentage of viability reduction, 72 h: SD in brackets; for IC50: Schistosoma mansoni, 72 h, Liberian strain
[7] = system: histone H3 / H4 acetylation in S. mansoni (Puerto Rican strain) worm pairs; test: Western blot of histone and lysine acetylation in worm extracts; format: cell-based, Schistosoma mansoni; settings: 10 μM, 48 h; histone-enriched fraction
[8] = system: S. mansoni newly transformed schistosomula (NTS), Liberian strain; test: NTS (Liberian strain) in vitro viability assay; format: cell-based, Schistosoma mansoni; settings: for percentage of reduction of NTS viability, 72 h: SD in brackets; for IC50: 72 h, Liberian strain
hSirt2 = settings: ref footnote b (reference number not given); cited from earlier work
in vitro = settings: human
[9] = system: cytochrome c release in S. mansoni (Puerto Rican strain) worms; test: Western blot of cytosolic cytochrome c in worm extracts; format: cell-based, Schistosoma mansoni; settings: 25 μM, 48 h (legend of Figure 5)
Description: To determine if the Sirt2 inhibitors trigger apoptosis through the cytochrome c pathway, we examined cytochrome c release from mitochondria.
5 Effects of selected Sirt2 inhibitors on cytosolic cytochrome c expression. Representative immunoblots of cytosolic protein fractions extracted from S. mansoni adult worm pairs are shown. The worms were treated with the indicated Sirt2 inhibitors (10 μM) for 48 h. DMSO (vehicle), TSA (1 μM, 24 h), a HDAC pan-inhibitor, and salermide (Sal 25 μM, 48 h), a Sirt1/Sirt2 inhibitor, were used as controls. The α-tubulin signal was used for normalization. Quantitation of cytochrome c relative to the vehicle-treated sample is shown.
Ten pairs of adult parasites were treated with selected Sirt inhibitors for either 24 or 48 h at partially lethal and sublethal concentrations. The concentrations of compounds were chosen based on the viability curve. Positive controls in the experiments included TSA, a pan-HDAC inhibitor, and salermide, a hSirt1/2 inhibitor, while DMSO (vehicle) served as negative control. Parasites were lysed in a 0.5% Triton PBS buffer by strokes, and the lysates were then centrifuged to collect the soluble fractions (cytosol). The insoluble fractions were extracted with 0.25 N HCl at +4 °C for 18 h, followed by neutralization with 1/10 volume of 2 N NaOH. Samples were analyzed using 15% SDS-PAGE and Western blotting. […]

schistosomula = system: schistosomula; parameters: method as in not given; settings: 48 h of treatment, 10–20 μM; ref not given; cited from earlier work

Chain of SmSirt2 (T1VXA1 entry or part of it): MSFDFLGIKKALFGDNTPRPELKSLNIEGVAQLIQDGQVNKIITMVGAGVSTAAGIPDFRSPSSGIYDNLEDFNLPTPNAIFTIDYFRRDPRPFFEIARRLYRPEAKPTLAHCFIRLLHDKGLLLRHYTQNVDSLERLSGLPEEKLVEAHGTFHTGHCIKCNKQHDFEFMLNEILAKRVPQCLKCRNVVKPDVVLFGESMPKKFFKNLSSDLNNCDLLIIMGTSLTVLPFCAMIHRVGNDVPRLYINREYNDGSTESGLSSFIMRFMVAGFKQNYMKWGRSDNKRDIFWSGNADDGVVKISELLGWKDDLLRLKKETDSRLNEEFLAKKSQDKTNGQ

In the case of `O=c1nc2oc3ccc4ccccc4c3cc-2c(=O)n1C1CCCCC1` [Compound 7, 10-Cyclohexyl-9H-benzo[5,6]chromeno[2,3-d]pyrimidine-9,11(10H)-dione], the “% egg laying” value ([1]; 1 μM, 24 h, single experiment) is reported as 75%, the “% egg laying” value ([1]; 1 μM, 48 h, single experiment) is reported as 66% and the “% egg laying” value ([1]; 1 μM, 72 h, single experiment) is reported as 75%. The “% egg laying” value ([1]; 10 μM, 24 h, SD in brackets) was 32 (4) %, the “% egg laying” value ([1]; 10 μM, 48 h, SD in brackets) was 46 (6) % and the “% egg laying” value ([1]; 10 μM, 72 h, SD in brackets) was 44 (10) %. For the same compound, the “% egg laying” value ([1]; 20 μM, 24 h, SD in brackets) was 14 (12) %, the “% egg laying” value ([1]; 20 μM, 48 h, SD in brackets) was 9 (8) % and the “% worm pairing” value ([2]; 1 μM, 24 h, single experiment) was 100%. For the same compound, the “% worm pairing” value ([2]; 1 μM, 48 h, single experiment) was 100%, the “% worm pairing” value ([2]; 1 μM, 72 h, single experiment) was 100% and the “% worm pairing” value ([2]; 10 μM, 24 h, SD in brackets) was 100 (0) %. For the same compound, the “% worm pairing” value ([2]; 10 μM, 48 h, SD in brackets) was 100 (0) %, the “% worm pairing” value ([2]; 10 μM, 72 h, SD in brackets) was 100 (0) % and the “% worm pairing” value ([2]; 20 μM, 24 h, SD in brackets) was 0 (0) %. For the same compound, the “% worm pairing” value ([2]; 20 μM, 48 h, SD in brackets) was 0 (0) %, the “% worm pairing” value ([2]; 20 μM, 72 h, SD in brackets) was 6 (11) % and the “lethality of adult worm pairs” value [3] was “complete lethality”. For the same compound, the mortality at 20 µM [4] was 70 to 80%, the inhibition at 50 µM (SmSirt2) was 24.6% and the IC50 at 72 h [5] was 60000 nM. For the same compound, the “adult worms' percentage of viability reduction, 72 h” value ([6]; 1 μM) was 23.9 (0) %, the “adult worms' percentage of viability reduction, 72 h” value ([6]; 20 μM) was 100 (0) % and the IC50 [6] was 1240 nM. The “acetylation of histone H3 (pan-acetylation)” value [7] was “increase in acetylation of histone H3”, the “acetylation of histone H4 (pan-acetylation)” value [7] was “but not histone H4” and the “percentage of reduction of NTS viability, 72 h” value (from here on “percentage of reduction … 72 h”) ([8]; 0.1 μM) was 43.8 (2.1) %. For the same compound, the “percentage of reduction … 72 h” value ([8]; 1 μM) was 67.7 (0) %, the “percentage of reduction … 72 h” value ([8]; 10 μM) was 100 (0) % and the “percentage of reduction … 72 h” value ([8]; 20 μM) was 100 (0) %. For the same compound, the IC50 [8] was 210 nM, the IC50 ([8]; Schistosoma mansoni) was about 200 nM and the IC50 (hSirt2) was 58500 ± 2900 nM.

For `O=c1nc2oc3ccc4ccccc4c3cc-2c(=O)n1Cc1ccccc1` [Compound 9, 10-Benzyl-9H-benzo[5,6]chromeno[2,3-d]pyrimidine-9,11(10H)-dione], the “% egg laying” value ([1]; 1 μM, 24 h, single experiment) was 98%, the “% egg laying” value ([1]; 1 μM, 48 h, single experiment) was 98% and the “% egg laying” value ([1]; 1 μM, 72 h, single experiment) was 126%. For the same compound, the “% egg laying” value ([1]; 10 μM, 24 h, SD in brackets) was 72 (74) %, the “% egg laying” value ([1]; 10 μM, 48 h, SD in brackets) was 71 (36) % and the “% egg laying” value ([1]; 10 μM, 72 h, SD in brackets) was 67 (28) %. The “% egg laying” value ([1]; 20 μM, 24 h, SD in brackets) was 11 (7) %, the “% egg laying” value ([1]; 20 μM, 48 h, SD in brackets) was 8 (5) % and the “% egg laying” value ([1]; 20 μM, 72 h, SD in brackets) was 7 (6) %. The “% worm pairing” value ([2]; 1 μM, 24 h, single experiment) was 100%, the “% worm pairing” value ([2]; 1 μM, 48 h, single experiment) was 100% and the “% worm pairing” value ([2]; 1 μM, 72 h, single experiment) was 100%. For the same compound, the “% worm pairing” value ([2]; 10 μM, 24 h, SD in brackets) was 80 (20) %, the “% worm pairing” value ([2]; 10 μM, 48 h, SD in brackets) was 93 (11) % and the “% worm pairing” value ([2]; 10 μM, 72 h, SD in brackets) was 100 (0) %. The “% worm pairing” value ([2]; 20 μM, 24 h, SD in brackets) was 6 (11) %, the “% worm pairing” value ([2]; 20 μM, 48 h, SD in brackets) was 20 (30) % and the “% worm pairing” value ([2]; 20 μM, 72 h, SD in brackets) was 20 (30) %. For the same compound, the “lethality of adult worm pairs” value [3] was “complete lethality”, the mortality at 20 µM [4] was 70 to 80% and the IC50 (SmSirt2; read-out: IC50 SmSirt2, ZMAL substrate) was 7300 ± 500 nM. The IC50 at 72 h [5] was 50600 nM, the “adult worms' percentage of viability reduction, 72 h” value ([6]; 20 μM) was 61.2 (5.6) % and the IC50 [6] was under 1000 nM. The “acetylation of histone H3 (pan-acetylation)” value [7] was “increase in acetylation of histone H3”, the “acetylation of histone H4 (pan-acetylation)” value [7] was “but not histone H4” and the “percentage of reduction … 72 h” value ([8]; 0.1 μM) was 36 (2) %. For the same compound, the “percentage of reduction … 72 h” value ([8]; 1 μM) was 100 (0) %, the “percentage of reduction … 72 h” value ([8]; 10 μM) was 100 (0) % and the “percentage of reduction … 72 h” value ([8]; 20 μM) was 100 (0) %. For the same compound, the IC50 [8] was 110 nM, the IC50 ([8]; Schistosoma mansoni) was about 100 nM and the IC50 (hSirt2) was 15900 ± 600 nM.

`CC(C)=CCC[C@]1(C)C=Cc2c(O)c3c(c(CC=C(C)C)c2O1)O[C@]12C(=C[C@@H]4C[C@H]1C(C)(C)O[C@@]2(C/C=C(/C)C(=O)O)C4=O)C3=O` [GA, gambogic acid] gave an IC50 at 72 h (in vitro) of 340 nM.

For `CC(C(=O)Nc1cccc(/N=C/c2c(O)ccc3ccccc23)c1)c1ccccc1` (stereo not shown) [salermide], the “effect on adult worm viability” value ([3]; after 72 h, same conditions) is given as “did not affect adult worm viability”, the “cytosolic cytochrome c level” value [9] is given as “increased levels of cytochrome c” and the “DNA fragmentation in schistosomula (TUNEL assay)” value (schistosomula) is given as “cause DNA fragmentation”.
